Measurements reported in article PMC9299220, “Inhibition of JMJD6 by 2‐Oxoglutarate Mimics” (Chemmedchem, 2021).
“Also recorded” adds a separate entry of the source. Like-named read-outs stand apart in the source and are kept apart here.

Columns and labels:
JMJD6Δ363‐403 = biological target: T1, JMJD6Δ363‐403 (Homo sapiens, UniProt Q6NYC1); assay: MALDI-TOF MS assay of JMJD6-catalysed lysine hydroxylation of LUC7L2 267-278 peptide; type: biochemical; settings: for IC50: n=3, 10 μM JMJD6Δ363‐403, 100 μM LUC7L2 267‐278, 100 μM Fe(II), 400 μM L-sodium ascorbate, 20 μM 2OG, inhibitor 0–10 mM; for potency of JMJD6 inhibition (in words): MS assay
T1 construct: made in house
Source text: Initially, we used the MS assay to screen a range of potential JMJD6 inhibitors, based on scaffolds identified as inhibitors of other 2OG oxygenases, grouped into: (i) TCA cycle and related acidic compounds; (ii) 2OG mimics / broad spectrum 2OG oxygenase inhibitors; (iii) PHD inhibitors in clinical use / investigation; (iv) tricarbonyl type compounds, which are known iron oxygenase inhibitors; (v) reported inhibitors of the JmjC KDMs.[23]
Figure S1. Initial inhibition assays. Bar charts showing extent of JMJD6 inhibition by 0.1, 1, and 10 mM compound: (A) TCA cycle intermediates/related compounds, (B) 2OG analogues, (C) PHD inhibitors, (D) Tricarbonyl type compounds, (E) JmjC KDM inhibitors.
Values represent the mean ± SD (n = 3). Conditions: 10 µM JMJD6Δ363-403 (prepared as […]
reported) and 100 µM LUC7L2267-278 ([…], with a C-terminal amide) at 37 °C in 50 mM HEPES pH 7.5 buffer with 100 µM (NH4)2Fe(SO4)2.6H2O (Sigma-Aldrich), […]
varied inhibitor concentrations (0-10 mM). Reactions were quenched and products analysed by MALDI-TOF MS following a reported procedure.[11]
(1 picture or pasted object on this page, not shown here)

[1] = biological target: T2, JMJD6Δ363‐403.Zn(II).2OG complex (Homo sapiens, UniProt Q6NYC1); assay: Ligand-observed CPMG-edited 1H NMR 2OG displacement assay from JMJD6Δ363‐403.Zn(II).2OG complex; type: binding; settings: for Kd: 1H NMR, 60 µM EDTA-treated JMJD6, 200 µM Zn(II), 20 µM 2OG, 50 mM Tris-D11 pH 7.0, 10% D2O, mean ± SD (n=3), read-out: KD app (apparent binding constant) (converted); for extent of 2OG displacement from JMJD6Δ363‐403.Zn(II).2OG complex (in words): initial screen, fixed inhibitor concentration (400 µM ligand), Figure S6
T2 construct: made in house
Source text: We investigated whether the inhibitors compete for binding to JMJD6^Δ363‐403, using ^1H NMR to investigate the extent to which they displace 2OG from the JMJD6^Δ363‐403.Zn(II).2OG complex, initially with a fixed inhibitor concentration (Figure S6).[21, 22]
Figure S6: 2OG displacement ligand-binding assays with JMJD6 using CPMG-edited 1H NMR. Bar charts show the extent of 2OG displacement for: (A) TCA cycle intermediates, (B) 2OG mimetics, (C) PHD inhibitors, (D) tricarbonyl type compounds, (E) KDM inhibitors. Conditions: 60 µM EDTA-treated JMJD6∆363-403, 200 µM Zn(II), 10 µM 2OG, and 400 µM of the ligand, all in 50 mM Tris-D11, pH 7.0 in 10% D2O. Values represent the mean (n = 3) ± standard deviation (SD). Eq DMSO: DMSO control without inhibitor.
Figure S7: KDapp determination for TCA cycle intermediates / related compounds binding to JMJD6. Plots used for the determination of KDapp values of (A) fumarate and (B) […]
succinate. […] Conditions: 60 µM
EDTA-treated JMJD6, 200 µM Zn(II), 20 µM 2OG, 0-400 µM ligand, all in 50 mM Tris-D11 pH 7.0 in 10% D2O. Values represent the mean ± SD (n = 3). Compound structures are […]
Figure S8: KDapp determination for pyridine derivative binding to JMJD6. Plots used for determination of KDapp values (A) 2,4-PDCA and (B) 2,4-BPDCA.
Conditions: 60 µM EDTA-treated
D2O. Values represent the mean ± SD (n = 3).
Figure S9: KDapp determination for PHD inhibitor binding to JMJD6. Plots used for the determination of KDapp value (A) AKB-6899 and (B) Vadadustat.
Conditions: 60 µM EDTA-treated JMJD6,
Values represent the mean ± SD (n = 3).
Conditions for NMR assays
NMR was used to measure 2OG displacement from JMJD6 caused by inhibitors according to the method of Leung et al. The Carr-Purcell-Meiboom-Gill (CPMG) pulse sequence coupled with periodic refocusing of J evolution by coherence transfer (PROJECT) method was applied for spectral editing was used to edit out protein signals. In the initial screen […]
2OG and 400 µM inhibitor; the 1H NMR-spectra of 2OG were then analysed. To determine the apparent binding constant (KDapp), 20 µM of 2OG was titrated against increasing concentrations of JMJD6Δ363-403 in the presence of Zn(II) [JMJD6∆363-403.Zn(II)]. Thus, JMJD6∆363-403.Zn(II) was added until the methylene signals of 2OG were no longer observed, indicating complete 2OG binding to JMJD6. The extent of 2OG (%) bound to JMJD6Δ363-403 was calculated and the values were plotted against the concentration of JMJD6Δ363-403 using OriginTM. The KDapp of 2OG was calculated as reported.[11] To determine the KDapp for the inhibitor, the recovery of 2OG-signals was monitored in the presence of varied concentrations of inhibitor (0-800 µM).
% 2OG Displacement = x 100 […]
where, I2OG is the integral of the 2OG 1H signal in the presence of both inhibitor and JMJD6∆363-403.Zn(II)], I2OG(0) is the integral of 2OG in the presence of JMJD6∆363-403.Zn(II)] without inhibitor, I2OG(blank) is the integral of 2OG in the absence of both JMJD6∆363-403.Zn(II)] and inhibitor, ∆obs is the change in the integral of 2OG resulting from titration, ∆max represents the maximum change of the monitored NMR parameter (2OG integral), [L]0 is the titrated ligand concentration, and [P]0 is the JMJD6∆363-403concentration. 5-10% error was typically allowed in the curve fitting process.

SMILES	IC50 (JMJD6Δ363‐403; mean±SD, read-out: IC50)	IC50 (JMJD6Δ363‐403; IC50, mean±SD)	other results
O=C(O)c1ccnc(-c2cc(C(=O)O)ccn2)c1 [2,4 BPDCA, 2,2’‐bipyridine‐4,4’‐dicarboxylate, reference compound]	6 ± 1.6 µM		Kd [1]: 7 µM; extent of 2OG displacement from JMJD6Δ363‐403.Zn(II).2OG complex (in words) [1]: most efficiently displaced 2OG
O=C(O)c1ccnc(C(=O)O)c1 [2,4 PDCA, pyridine‐2,4‐dicarboxylate, reference compound]	13 ± 1.3 µM		Kd [1]: 6 µM; extent of 2OG displacement from JMJD6Δ363‐403.Zn(II).2OG complex (in words) [1]: most efficiently displaced 2OG
O=C(O)CNC(=O)c1ncc(-c2cccc(F)c2)cc1O [AKB‐6899]	9 ± 1.5 µM		Kd [1]: 3 µM; extent of 2OG displacement from JMJD6Δ363‐403.Zn(II).2OG complex (in words) [1]: most efficiently displaced 2OG
O=C(O)CC(O)(CC(=O)O)C(=O)O [Citrate]	987 ± 1.3 µM		
CN(C)NC(=O)CCC(=O)O [Daminozide, reference compound]		94 ± 1.5 µM	
O=C(O)CC[C@@H](O)C(=O)O [D‐2HG, 2‐hydroxyglutarate]	622 ± 1.4 µM		
Cc1nc(C(=O)NCC(=O)O)c(O)c2ccc(Oc3ccccc3)cc12 [FG‐4592, reference compound]	23 ± 1.5 µM		
O=C(O)/C=C/C(=O)O [Fumarate]	165 ± 1.4 µM		potency of JMJD6 inhibition (in words) (JMJD6Δ363‐403): most potent of these compounds; Kd [1]: 109 µM; extent of 2OG displacement from JMJD6Δ363‐403.Zn(II).2OG complex (in words) [1]: most efficiently displaced 2OG
O=C(O)CNC(=O)c1c(O)n(C2CCCCC2)c(=O)n(C2CCCCC2)c1=O [GSK1278863, reference compound]		10 ± 1.2 µM	
O=C(O)c1ccc(O)c2ncccc12 [IOX1, 5‐carboxy‐8‐hydroxyquinoline, reference compound]	10 ± 1.5 µM		
O=C(O)CC[C@H](O)C(=O)O [L‐2HG, 2‐hydroxyglutarate]	871 ± 1.5 µM		
O=C(O)CC(O)C(=O)O (centres unmarked) [Malate]	5103 ± 2 µM		
O=c1c(-n2ccnn2)c[nH]n1-c1cc(N2CCOCC2)ncn1 [Molidustat, reference compound]	74 ± 1.6 µM		
O=C(O)CNC(=O)C(=O)O [NOG, N‐oxalylglycine, reference compound]	296 ± 1.9 µM		potency of JMJD6 inhibition (in words) (JMJD6Δ363‐403): poor inhibitor; also recorded: not a potent JMJD6 inhibitor; extent of 2OG displacement from JMJD6Δ363‐403.Zn(II).2OG complex (in words) [1]: only weakly displaced 2OG
O=C(O)CC(=O)C(=O)O [Oxaloacetate]	204 ± 2 µM		
CC(=O)C(=O)O [Pyruvate]	2377 ± 1.7 µM		
O=C(O)CCC(=O)O [Succinate]	261 ± 2.3 µM		Kd [1]: 159 µM; extent of 2OG displacement from JMJD6Δ363‐403.Zn(II).2OG complex (in words) [1]: most efficiently displaced 2OG
O=C(O)CNC(=O)c1ncc(-c2cccc(Cl)c2)cc1O [Vadadustat]	7 ± 1.6 µM		Kd [1]: 14 µM; extent of 2OG displacement from JMJD6Δ363‐403.Zn(II).2OG complex (in words) [1]: most efficiently displaced 2OG

SMILES	IC50 (JMJD6Δ363‐403; mean±SD, read-out: IC50)	IC50 (JMJD6Δ363‐403; IC50, mean±SD)	other results
O=C(O)CNC(=O)CNC(=O)C(=O)O [compound 1]	189 ± 1.5 µM		
O=C(O)c1ccnc2c(O)cccc12 [compound 2]	5 ± 1.3 µM		
O=C(O)CCC(=O)NO [compound 3]	25 ± 2 µM		
CCOC(=O)CNC(=O)c1c(O)n(C2CCCCC2)c(=O)n(C2CCCCC2)c1=O [compound 4]		175 ± 1.5 µM	
O=C(O)CNC(=O)c1c(O)[nH]c(=O)[nH]c1=O [compound 5]		19 ± 1.3 µM	
Cn1c(O)c(C(=O)NCC(=O)O)c(=O)n(C)c1=O [compound 6]		23 ± 1.2 µM	
Cn1c(O)c(C(=O)CCc2ccccc2)c(=O)n(C)c1=O [compound 7]		43 ± 1.1 µM	
Cn1c(O)c(C(=O)CCc2cccs2)c(=O)n(C)c1=O [compound 8]		27 ± 1.4 µM	
CCn1c(O)c(C(=O)CCC2CCCC2)c(=O)n(CC)c1=O [compound 9]		≥ 1000 µM	
O=C(CCC1CCCC1)c1c(O)n(C2CCCCC2)c(=O)n(C2CCCCC2)c1=O [compound 10]		≥ 1000 µM	
Cn1c(O)c(C(=O)CCC2CCCC2)c(=O)n(C)c1=O [compound 11]		67 ± 1.2 µM	
COc1ccccc1CCC(=O)c1c(O)n(C)c(=O)n(C)c1=O [compound 12]		58 ± 1.4 µM	
COc1cccc(CCC(=O)c2c(O)n(C)c(=O)n(C)c2=O)c1 [compound 13]		135 ± 1.3 µM	
Cn1c(O)c(C(=O)CCC2CC2)c(=O)n(C)c1=O [compound 14]		163 ± 1.3 µM	
Cn1c(O)c(C(=O)CCc2ccsc2)c(=O)n(C)c1=O [compound 15]		≥ 1000 µM	
CC(Cc1ccsc1)C(=O)c1c(O)n(C)c(=O)n(C)c1=O (centres unmarked) [compound 16]		214 ± 1.4 µM	
CC(Cc1ccsc1)C(=O)c1c(O)n(C)c(=O)n(C)c1=O (centres unmarked) [compound 17]		22 ± 1.4 µM	
